Among the test systems are DMS-114; DMS-273; LXFL 529; RXF 631; SNB-78; DLD-1; HOP-18; KM-20L2; XF498.
Holding throughout (assay): inhibition of tumour cell growth, NCI panel, 48 h

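Step 1: Grow cells in 96-well plates. Step 2: Expose to compound for 48 hours at 5 concentrations. Step 3: Interpolate endpoints linearly; if unreached, use highest concentration. At the GI50, growth is halved.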 Active and inactive are the calls of the source. Cut-off read from the data, not from the text of the source: active = GI50 up to about 1.1 µM and inactive = higher. Where a SMILES comes first, the peptide text is derived from it. [ ]: non-standard residue; d: D form. Phe(F5) = N[CH](Cc1c(F)c(F)c(F)c(F)c1F)C(=O)O

Consider `CCC(Oc1ccc(OC)c2ccccc(=O)c12)C(=O)O` (stereo not drawn), for which the GI50 in the assay with DMS-114, in the assay on DMS-273, in the assay with LXFL 529, with RXF 631 and with SNB-78 was > 100 µM (inactive) each time.
With `c1ccc2c(c1)[Se]c1ccccc1[Se]2`, the GI50 was 53.8 µM (inactive) in the assay on DLD-1; 67 µM (inactive) with DMS-114; > 100 µM (inactive) in the assay on DMS-273; 4.92 µM (inactive) with HOP-18; > 100 µM (inactive) with KM-20L2; 61.4 µM (inactive) with LXFL 529. In addition, the GI50 in the assay with SNB-78 is 30.5 µM (inactive); with XF498, > 100 µM (inactive).
In the case of `CC(=O)Nc1cc(N(CCOS(C)(=O)=O)CCOS(C)(=O)=O)ccc1N=O`, the GI50 with DLD-1, in the assay on DMS-114, in the assay on DMS-273, with KM-20L2, in the assay on LXFL 529 and in the assay with XF498 was > 100 µM (inactive) throughout.
For the compound `O=C1Nc2ccccc2C1(O)C/C(=N/O)c1ccc2ccccc2c1` (stereo not drawn), the GI50 in the assay on DLD-1 was > 100 µM (inactive); in the assay with DMS-114, 64.6 µM (inactive); in the assay with HOP-18, > 100 µM (inactive); in the assay with KM-20L2, > 100 µM (inactive); with LXFL 529 it was 91.2 µM (inactive); with RXF 631 it was 29.7 µM (inactive). The figures for the GI50 in the assay on SNB-78 and in the assay on XF498 were 60.1 µM (inactive) and 93.3 µM (inactive), respectively.
For the compound `CC(C)c1cc2c(O)c(c1)Cc1cc(C(C)C)cc(c1O)Cc1cc(C(C)C)cc(c1O)Cc1cc(C(C)C)cc(c1O)C2`, the GI50 in the assay on DLD-1, in the assay on DMS-114, with DMS-273, in the assay with HOP-18, in the assay on KM-20L2 and in the assay on SNB-78 was > 100 µM (inactive) throughout. The GI50 in the assay on XF498 is > 100 µM (inactive).
For the compound `Cc1cc2c(c(C(N)=O)c1C)-c1ccccc1C2=O`, the GI50 with DLD-1, with DMS-114, with DMS-273, in the assay with HOP-18, in the assay with KM-20L2 and in the assay on LXFL 529 was > 100 µM (inactive) in each case. Further, the GI50 in the assay with RXF 631 and with SNB-78 was > 100 µM (inactive) in each case.
In the case of `COc1ccc(OCC(=O)O)c(C(=O)CCC(=O)O)c1`, the GI50 in the assay with DLD-1, in the assay on DMS-114, with DMS-273, in the assay on LXFL 529, with RXF 631 and in the assay with SNB-78 was > 100 µM (inactive) throughout. Further, the GI50 in the assay with XF498 was > 100 µM (inactive).
As for `CCc1cc(CCC(=O)Nc2ccccc2[N+](=O)[O-])nc(S)n1`, the GI50 in the assay on DLD-1, with DMS-114, with HOP-18, in the assay on KM-20L2, with LXFL 529 and in the assay on RXF 631 was > 100 µM (inactive) each time. For the same compound, the GI50 in the assay on SNB-78 is > 100 µM (inactive).
As for `OCCCOC(c1ccccc1)(c1ccccc1)c1ccccc1`, the GI50 is 60.1 µM (inactive) in the assay on DLD-1; > 100 µM (inactive) in the assay with DMS-114; > 100 µM (inactive) with DMS-273; > 100 µM (inactive) in the assay with KM-20L2; > 100 µM (inactive) in the assay with LXFL 529; > 100 µM (inactive) with RXF 631. The GI50 with SNB-78 was 38.9 µM (inactive); in the assay on XF498, > 100 µM (inactive).
For the compound `CC(O)CN1C(=O)NC(Cc2ccccc2)C1=O` (stereo not drawn), the GI50 in the assay on DLD-1, in the assay with DMS-114, with DMS-273, in the assay with HOP-18, in the assay on KM-20L2 and in the assay on LXFL 529 was > 100 µM (inactive) throughout. The GI50 with SNB-78 and in the assay with XF498 was > 100 µM (inactive) in each case.
`Cc1ccc(C(=O)/C=C/c2ccccc2O)c(C)c1`: the GI50 with DLD-1, in the assay on DMS-114, in the assay on DMS-273, in the assay with KM-20L2, with LXFL 529 and in the assay with SNB-78 was > 100 µM (inactive) each time.
With `O=CN/C=C/c1cc(O)ccc1O` [ERBSTATIN], the GI50 in the assay on DLD-1 was 16 µM (inactive); with DMS-114 it was 17.6 µM (inactive); in the assay with DMS-273 it was 77.1 µM (inactive); in the assay with HOP-18, > 40.6 µM (inactive); in the assay with KM-20L2 it was 52.2 µM (inactive); with LXFL 529 it was 11.6 µM (inactive). The results for the GI50 in the assay with SNB-78 and in the assay with XF498 were 19 µM (inactive) and 19.8 µM (inactive), respectively.
Consider `CCOC(=O)C(C)(NC(=O)c1ccc(NCc2ccc3nc(NC(=O)c4ccccc4)nc(NC(=O)c4ccccc4)c3c2)cc1)C(=O)OCC`, for which the GI50 was 15.6 µM (inactive) with DLD-1; 16.8 µM (inactive) with DMS-114; 9.23 µM (inactive) in the assay on DMS-273; 37.8 µM (inactive) in the assay on HOP-18; 18.4 µM (inactive) in the assay with KM-20L2; 12.2 µM (inactive) in the assay with RXF 631. The GI50 in the assay with SNB-78 is 9.23 µM (inactive).
As to `COc1cc(C2C(C(=O)O)=C(C)Oc3cc4c(cc32)OCO4)cc(OC)c1OC` (stereo not drawn), the GI50 in the assay on DLD-1 was 29 µM (inactive); with DMS-114 it was 16.2 µM (inactive); in the assay on DMS-273 it was 13.7 µM (inactive); with HOP-18 it was 28.8 µM (inactive); in the assay with KM-20L2, 32.4 µM (inactive); in the assay on RXF 631, 36.1 µM (inactive). For the same compound, the GI50 was 50.4 µM (inactive) in the assay on SNB-78 and 42.2 µM (inactive) in the assay on XF498.
On to `CCN(CC)CCNc1c2ccccc2nc2cccc([N+](=O)[O-])c12`, for which the GI50 in the assay with DLD-1 was 0.0225 µM (active); in the assay on DMS-114, 0.0241 µM (active); in the assay on DMS-273 it was 0.0358 µM (active); in the assay on KM-20L2, 0.0303 µM (active); in the assay on LXFL 529, 0.0211 µM (active); in the assay with RXF 631, 0.0317 µM (active). Also, the GI50 with SNB-78 was 0.0993 µM (active); in the assay on XF498, 0.0193 µM (active).
`O=C(CNc1ccc2c(=S)c3ccccc3[nH]c2c1)Nc1ccccc1-c1ccccc1NC(=O)CNc1ccc2c(=S)c3ccccc3[nH]c2c1`: the GI50 in the assay on DLD-1 is 11 µM (inactive); in the assay on DMS-114 it was 17.1 µM (inactive); in the assay with DMS-273, > 46 µM (inactive); in the assay on HOP-18 it was 16.1 µM (inactive); in the assay with KM-20L2, 19.7 µM (inactive); with LXFL 529 it was 7.45 µM (inactive). Besides, the values for the GI50 in the assay on SNB-78 and in the assay on XF498 were 32.9 µM (inactive) and 19.1 µM (inactive), respectively.
Regarding `COc1ccccc1N1C(=O)/C(=C/c2ccc(N(CCC#N)CCC#N)cc2C)N=C1c1cc([N+](=O)[O-])ccc1Cl`, the GI50 in the assay on DMS-114, in the assay with DMS-273, with HOP-18, with KM-20L2, with LXFL 529 and in the assay with SNB-78 was > 100 µM (inactive) throughout. Moreover, in the assay on XF498, the GI50 was > 100 µM (inactive).
As to `CC(=O)Oc1ccc(C(c2ccc(OC(C)=O)cc2)c2ccccn2)cc1` [BISACODYL], the GI50 was 7.11 µM (inactive) with DLD-1; 0.57 µM (active) in the assay on DMS-114; > 100 µM (inactive) in the assay on DMS-273; > 47 µM (inactive) in the assay on HOP-18; 54.2 µM (inactive) with KM-20L2; 28.8 µM (inactive) with LXFL 529. Also, the results for the GI50 with RXF 631 and with XF498 were > 100 µM (inactive) and 40.1 µM (inactive), respectively.
As for `NCCCC(N)(C(=O)O)C(F)F` (stereo not drawn) [EFLORNITHINE], the GI50 was > 3160 µM (inactive) in the assay on DLD-1; > 5000 µM (inactive) with DMS-114; 1220 µM (inactive) with DMS-273; > 50 µM (inactive) with HOP-18; > 5000 µM (inactive) with KM-20L2; > 100 µM (inactive) with LXFL 529. In addition, the GI50 with RXF 631 is > 100 µM (inactive); with SNB-78 it was > 5000 µM (inactive).
Turning to `CN(c1ccccc1)C(c1ccccc1)C(O)c1ccccc1` (stereo not drawn), the GI50 in the assay with DLD-1 is 23.9 µM (inactive); in the assay on DMS-114, 20.9 µM (inactive); in the assay with DMS-273 it was 18.7 µM (inactive); with HOP-18, 14.9 µM (inactive); in the assay on KM-20L2, 19.4 µM (inactive); in the assay on LXFL 529, 21 µM (inactive). For the same compound, the GI50 is 18.8 µM (inactive) in the assay on RXF 631 and 22.6 µM (inactive) in the assay with SNB-78.
For the compound `COC(=O)C(CC(C)C)NC(=O)C(Cc1c[nH]cn1)NC(=O)CNC(=O)C(NC(=O)C(C)NC(=O)C(Cc1c[nH]c2ccccc12)NC(=O)C(CCC(=O)O)NC(=O)C(N)Cc1c(F)c(F)c(F)c(F)c1F)C(C)C` (stereo not drawn) (H-[Phe(F5)]EWAVGHL-OMe; configuration not given here), the GI50 in the assay on DLD-1, with DMS-114, in the assay with DMS-273, in the assay on HOP-18, in the assay on KM-20L2 and with LXFL 529 was > 100 µM (inactive) throughout. The GI50 with SNB-78 and with XF498 was > 100 µM (inactive) in each case.
Consider `COc1ccc(/C=C2/C(=O)N(C(=O)c3ccc(Cl)cc3)N=C2C)cc1OC`, for which the GI50 in the assay with DLD-1, with DMS-114, with KM-20L2, in the assay with LXFL 529, with SNB-78 and with XF498 was > 100 µM (inactive) throughout.
As for `COc1ccccc1/C=N/N=C(\N)NO`, the GI50 was 23.8 µM (inactive) in the assay on DLD-1; 5.78 µM (inactive) in the assay on DMS-114; 48.9 µM (inactive) in the assay on HOP-18; 3.3 µM (inactive) in the assay on LXFL 529; > 100 µM (inactive) in the assay with SNB-78.
`Cc1ccc(S(=O)(=O)OC2CC=CC2)cc1`: the GI50 in the assay with DLD-1, with DMS-114, in the assay on DMS-273, in the assay with HOP-18, in the assay on KM-20L2 and in the assay on LXFL 529 was > 100 µM (inactive) throughout. Further, the GI50 with SNB-78 and with XF498 was > 100 µM (inactive) throughout.
On to `CCN(CC)CCN1C(=O)CC2[C@@H]3CCc4cc(OC)ccc4C3CC[C@]2(C)C1=O` (stereo partly drawn), for which the figures for the GI50 with KM-20L2, with LXFL 529 and with SNB-78 were 20.1 µM (inactive), 16.4 µM (inactive) and 28.5 µM (inactive), respectively.
